Consider five molecules from patent publication US6794383B2, “Heart muscular cell apoptosis inhibitors and remedies/preventives for heart diseases” (Takeda Chemical Industries, Ltd., priority 2000, dated 2004).

The subject of assay [1] is primary heart muscle cells derived from newborn rats. The experiment in a line: Inhibitory activity on heart muscle cell apoptosis (serum-free culture, viable cell number by WST-8). It is filed as cell-based, rat. The following applies: mean ± SD of three independent experiments; concentration required to increase the mean viable cell number by 30% vs absence of test compound; serum-free Medium 199, 4 days. The source says: Newborn rats (within 1 day after birth) were obtained from pregnant Wister rats purchased from Charles River, anesthetized under ether, and sterilized with 70% ethanol, and then their hearts were excised with tweezers. The excised hearts were washed with a phosphate-buffered physiological saline (T900; Takara) and cut into pieces with surgical scissors. These tissue pieces were washed 4 to 5 times with a phosphate-buffered physiological saline to remove a majority of blood-derived non-heart muscle cells. To the tissue pieces derived from 10 newborns, 5 ml of enzyme solution (1.25 mg trypsin (Difco) and 0.25 mg collagenase (Sigma) per ml of phosphate-buffered saline (PBS)) was added and the mixture was stirred with a stirrer at 37° C. for 15 mins. Another 2.5 ml enzyme solution was then added twice repeatedly at a 15-minutes interval. Then, Medium 199 (Gibco) containing 10% fetal calf serum (Biowiker) was added in a half volume of the enzyme solution to terminate the enzyme reaction. The cells were filtered through a Cell Strainer (Falcon) and then centrifuged at 400×g for 5 minutes, whereby the cells were collected.
The cells thus collected from 10 newborns were suspended in 50 ml Medium 199 containing 10% fetal calf serum, plated onto 100 mm Petri dishes (Iwaki) in a volume of 10 ml/dish and cultured for 1 hour in a CO2 incubator set at 5% CO2 and 37° C. The cells were then recovered, filtered through a Cell Strainer and centrifuged at 400×g for 5 minutes to collect the primary heart muscle cells derived from newborn rats.
Then, the heart muscle cells from 10 newborn rats were suspended in 2 ml low-isotonic solution (prepared by dissolving 8.29 g NH4Cl, 1.0 g KHCO3, 37 mg EDTA/2Na (ethylenediaminetetraacetic acid disodium)(Dojindo) in 1 L of water) and left for 3 minutes to disrupt erythrocytes. After 10 ml Medium 199 containing 10% fetal calf serum was added thereto, the primary heart muscle cells from newborn rats were collected by centrifugation at 400×g for 5 minutes. The cells were suspended in Medium 199 containing 10% fetal calf serum and then filtered through a cell strainer. After 0.3% trypan blue was added to, and mildly mixed with, an aliquot of the resulting cell suspension, the number of heart muscle cells was counted on an erythrocyte counting plate.
The primary heart muscle cells from newborn rats were suspended at a density of 3×10^6 cells/ml in Medium 199 containing 10% fetal calf serum, put onto a 96-well plate in a volume of 0.1 ml/well, and then cultured in a CO2 incubator set at 5% CO2 and 37° C. After the plate was stirred with a micromixer (Taiyo Kagaku Kogyo), the medium was exchanged 3 times with serum-free Medium 199, and then test compounds (Compounds 1 to 5 obtained in Reference Examples) were added thereto. The cells were cultured for additional 4 days to induce apoptosis. Then, fetal calf serum was added thereto at a concentration of 10%, and the cells were further cultured for about 17 hours in a CO2 incubator set at 5% CO2 and 37° C. Finally, the number of viable cells was determined with Cell Counting Kit (Dojindo) using WST-8 (2-(2-methoxy-4-nitrophenyl)-3-(4-nitrophenyl)-5-(2,4-disulfophenyl)-2H-tetrazolium, monosodium salt) as the coloring substrate to determine the inhibition of the heart muscle cell apoptosis.
The above-mentioned exeriment was tripicated in an independent manner. […]
Background: Tetrazolium assays rely on reduction of a dye to a coloured formazan, in cell work by metabolically active cells.

For assay [2], the system named is phosphorylated STAT3 (Tyr705) / gp130 signal. The experiment in a line: Enhancing action on gp130 signal: LIF-induced phosphorylation of STAT3 (Tyr705) by immunoblotting. It is filed as cell-based, rat. The following applies: 0.01-10 μM Compound 1 with 10 U/ml human LIF, 30 minutes, primary heart muscle cells from newborn rats, FIG. 1. The source says:
STAT3 (signal transducers and activators of transcription-3) is a primary positive regulatory factor involved in transmission of gp130 signal. Phosphorylation of the tyrosine residue at the 705th position (Tyr705) is essential for activation of STAT3. Accordingly, this phosphorylation can be used as an indicator of activation of STAT3, that is, of an enhancing action on gp130 signal.
Primary heart muscle cells derived from newborn rats were stimulated with a small amount of LIF (Leukemia inhibitory factor) to induce gp130 signal in the presence of a test compound (Compound 1 obtained in Reference Example 1). Phosphorylation of Tyr705 was examined by immunoblotting with an antibody specifically recognizing phosphorylated STAT3, to confirm the enhancing action of the test compound on gp130 signal.
The primary heart muscle cells derived from newborn rats, obtained in the method of Experimental Example 1, were suspended at a density of 5×10^6 cells/ml in Medium 199 containing 10% fetal bovine serum, then put to a 12-well plate (ASAHI TECHNO GLASS CORPORATION) in a volume of 2.0 ml/well, and cultured for 1 day in a 5% CO2 incubator set at 37° C. […]
Background: In western blotting, separated proteins are transferred to a membrane and probed.

`O=c1nc(-c2ccccn2)sc2ccccc12` [Compound 1, 2-(2-Pyridyl)-4H-1,3-benzothiazin-4-one]: the “Minimal Effective Concentration” value in assay [1] came to 0.015 ± 0.011 µM. Moreover, in assay [2], the “phosphorylation of STAT3 induced by LIF” value is recorded as “can further promote phosphorylation of STAT3”. In the case of `O=c1nc(-c2cccnc2)sc2ccccc12` [Compound 2, 2-(3-pyridyl)-4H-1,3-benzothiazin-4-one], in assay [1], the “Minimal Effective Concentration” value turned out to be 0.041 ± 0.018 µM. Turning to `O=c1nc(-c2ccncc2)sc2ccccc12` [Compound 3, 2-(4-pyridyl)-4H-1,3-benzothiazin-4-one], the “Minimal Effective Concentration” value in assay [1] was 0.014 ± 0.0099 µM. `CCOC(=O)/C=C1\NC(=O)c2ccccc2S1` [Compound 4, Ethyl 2-(4-oxo-3,4-dihydro-2H-1,3-benzothiazin-2-ylidene)acetate]: in assay [1], the “Minimal Effective Concentration” value was found to be 0.019 ± 0.0078 µM. The same measure, in the same setting: the figure for `O=C1N/C(=C\C(=O)N2CCCCC2)Sc2ccccc21` [Compound 5, 2-[2-oxo-2-(1-piperidinyl)ethylidene]-2,3-dihydro-4H-1,3-benzothiazin-4-one] is 0.06 ± 0.041 µM.
